T/C data for 27 compounds are collected here from PubChem BioAssay AID328 (DTP/NCI, 2004).

Values joined by “and” are separate entries in the source; they are usually repeats but may differ in a detail not shown here. Equal values may be shown once. Toxic doses and inconclusive results are not listed.

For the assay, the system named is BDF1 mice, P388 leukemia ip, median survival T/C. As to the kind of experiment: NCI In Vivo Anticancer Drug Screen. Data for tumor model P388 Leukemia (intraperitoneal) in B6D2F1 (BDF1) mice. As to conditions: endpoint: median survival time, higher = longer survival. Put shortly:
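Reported as T/C, where T is the survival measurement in dosed animals and C the same measurement in vehicle controls.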

Setting [1] is: dose: 25.0 mg/kg/injection, schedule: Q01DX009 (ip), vehicle: Klucel (hydroxypropylcellulose) (HPC).
The mark [2] stands for this setting: dose: 50.0 mg/kg/injection, schedule: Q01DX009 (ip), vehicle: Klucel (hydroxypropylcellulose) (HPC).
The mark [3] stands for this setting: dose: 100.0 mg/kg/injection, schedule: Q01DX009 (ip), vehicle: Klucel (hydroxypropylcellulose) (HPC).
The mark [4] stands for this setting: dose: 100.0 mg/kg/injection, schedule: Q04DX003 (ip), vehicle: Klucel (hydroxypropylcellulose) (HPC).
The mark [5] stands for this setting: dose: 200.0 mg/kg/injection, schedule: Q01DX009 (ip), vehicle: Klucel (hydroxypropylcellulose) (HPC).
Where [6] appears, read: dose: 200.0 mg/kg/injection, schedule: Q04DX003 (ip), vehicle: Klucel (hydroxypropylcellulose) (HPC).
The mark [7] stands for this setting: dose: 400.0 mg/kg/injection, schedule: Q01DX009 (ip), vehicle: Klucel (hydroxypropylcellulose) (HPC).
Setting [8] is: dose: 400.0 mg/kg/injection, schedule: Q04DX003 (ip), vehicle: Klucel (hydroxypropylcellulose) (HPC).
[9] abbreviates: dose: 12.5 mg/kg/injection, schedule: Q01DX009 (ip), vehicle: saline with Tween-80.
Setting [10] is: dose: 25.0 mg/kg/injection, schedule: Q01DX009 (ip), vehicle: saline with Tween-80.
Where [11] appears, read: dose: 50.0 mg/kg/injection, schedule: Q01DX009 (ip), vehicle: saline with Tween-80.
The mark [12] stands for this setting: dose: 100.0 mg/kg/injection, schedule: Q01DX009 (ip), vehicle: saline with Tween-80.
The mark [13] stands for this setting: dose: 100.0 mg/kg/injection, schedule: Q04DX003 (ip), vehicle: saline with Tween-80.
Setting [14] is: dose: 200.0 mg/kg/injection, schedule: Q01DX009 (ip), vehicle: saline with Tween-80.
Setting [15] is: dose: 200.0 mg/kg/injection, schedule: Q04DX003 (ip), vehicle: saline with Tween-80.
Where [16] appears, read: dose: 400.0 mg/kg/injection, schedule: Q01DX009 (ip), vehicle: saline with Tween-80.
Where [17] appears, read: dose: 400.0 mg/kg/injection, schedule: Q04DX003 (ip), vehicle: saline with Tween-80.

With `COC(=O)CS(=O)(=O)C(C)(C)C(=O)c1ccccc1`, the T/C (dose: 75.0 mg/kg/injection, schedule: Q01DX001 (ip), vehicle: other) is 100 % of control; the T/C (dose: 150.0 mg/kg/injection, schedule: Q01DX001 (ip), vehicle: other) was 120 % of control; the T/C (dose: 300.0 mg/kg/injection, schedule: Q01DX001 (ip), vehicle: other) is 110 % of control.
Regarding `COc1cccc(Sc2ccc([N+](=O)[O-])c3no[n+]([O-])c23)c1`, the T/C (dose: 30.0 mg/kg/injection, schedule: Q01DX009 (ip), vehicle: saline with Tween-80) was 102 % of control and the T/C (dose: 60.0 mg/kg/injection, schedule: Q01DX009 (ip), vehicle: saline with Tween-80) was 115 % of control.
In the case of `Nc1c(SSc2ccc3ccccc3c2N)ccc2ccccc12`, the T/C is 109 % of control (dose: 6.25 mg/kg/injection, schedule: Q01DX001 (ip), vehicle: Klucel (hydroxypropylcellulose) (HPC)); 109 % of control (dose: 12.5 mg/kg/injection, schedule: Q01DX001 (ip), vehicle: Klucel (hydroxypropylcellulose) (HPC)); 116 % of control (dose: 25.0 mg/kg/injection, schedule: Q01DX001 (ip), vehicle: Klucel (hydroxypropylcellulose) (HPC)).
For `CC(=O)C(C#N)c1ccccc1` (centres undefined), the T/C (dose: 12.5 mg/kg/injection, schedule: Q01DX009 (ip), vehicle: Klucel (hydroxypropylcellulose) (HPC)) is 118 % of control; the T/C under setting [1] is 109 % of control; the T/C under setting [2] is 90 % of control.
With `Clc1cc(C(Cl)(Cl)Cl)ccc1C(Cl)(Cl)Cl`, the T/C by setting is: (dose: 100.0 mg/kg/injection, schedule: Q01DX001 (ip), vehicle: saline with Tween-80) 100 % of control; (dose: 200.0 mg/kg/injection, schedule: Q01DX001 (ip), vehicle: saline with Tween-80) 104 % of control; (dose: 400.0 mg/kg/injection, schedule: Q01DX001 (ip), vehicle: saline with Tween-80) 95 % of control.
In the case of `CC1SC(N)=NC1=O` (centres undefined), the T/C reads like this: under setting [3], 100 % of control; under setting [4], 109 % of control; under setting [5], 109 % of control; under setting [6], 86 % of control; under setting [7], 100 % of control; under setting [8], 109 % of control.
Take `Cc1ccc(NC(=O)N(CCCl)N=O)cc1C`: the T/C (dose: 6.6 mg/kg/injection, schedule: Q04DX003 (ip), vehicle: saline with Tween-80) is 159 % of control; the T/C (dose: 10.0 mg/kg/injection, schedule: Q04DX003 (ip), vehicle: saline with Tween-80) was 209 % of control; the T/C (dose: 15.0 mg/kg/injection, schedule: Q04DX003 (ip), vehicle: saline with Tween-80) is 204 % of control.
As for `O=C1c2ccccc2C(=O)N1CC(O)COc1ccccc1` (centres undefined), the T/C reads like this: (dose: 75.0 mg/kg/injection, schedule: Q01DX001 (ip), vehicle: saline sonified) 104 % of control; (dose: 150.0 mg/kg/injection, schedule: Q01DX001 (ip), vehicle: saline sonified) 122 % of control; (dose: 300.0 mg/kg/injection, schedule: Q01DX001 (ip), vehicle: saline sonified) 104 % of control.
For `N#CC(Br)(Br)C(N)=O`, the T/C is 115 % of control (dose: 2.5 mg/kg/injection, schedule: Q01DX009 (ip), vehicle: saline) and 102 % of control (dose: 5.0 mg/kg/injection, schedule: Q01DX009 (ip), vehicle: saline).
For the compound `CN(C)c1ccc([N+](=O)[O-])cn1`, the T/C reads like this: under setting [9], 95 % of control; under setting [10], 102 % of control; under setting [11], 98 % of control; under setting [12], 98 % of control.
For `CCOC(=O)C(C)(C(=O)OCC)c1ccccc1`, the T/C was 104 % of control under setting [12]; 115 % of control under setting [13]; 113 % of control under setting [14]; 110 % of control under setting [15]; 118 % of control under setting [16]; 115 % of control under setting [17].
As for `C[C@H](CCC[C@H](C)OS(=O)(=O)c1ccccc1)OS(=O)(=O)c1ccccc1`, the T/C under setting [10] was 117 % of control; the T/C under setting [11] was 99 % of control and 116 % of control; the T/C under setting [12] was 155 % of control; the T/C under setting [14] is 156 % of control and 180 % of control; the T/C under setting [16] was 182 % of control.
As to `CC(O)(/C=C\c1ccccc1)c1ccccc1` (centres undefined), the T/C by setting is: under setting [12], 105 % of control; under setting [13], 95 % of control; under setting [14], 107 % of control; under setting [15], 104 % of control; under setting [16], 105 % of control; under setting [17], 104 % of control.
Turning to `CC(=O)NC1C(S[As](C)C)OC(COC(C)=O)C(OC(C)=O)C1OC(C)=O` (centres undefined), under setting [12], the T/C was 124 % of control.
Consider `O=[As]c1ccc(Br)cc1` (centres undefined), for which the T/C reads like this: (dose: 0.5 mg/kg/injection, schedule: Q01DX009 (ip), vehicle: Klucel (hydroxypropylcellulose) (HPC)) 104 % of control; (dose: 1.0 mg/kg/injection, schedule: Q01DX009 (ip), vehicle: Klucel (hydroxypropylcellulose) (HPC)) 104 % of control; (dose: 2.0 mg/kg/injection, schedule: Q01DX009 (ip), vehicle: Klucel (hydroxypropylcellulose) (HPC)) 104 % of control.
Turning to `CN(C)c1ccc(/C=C/c2ccnc3c(Cl)cccc23)cc1`, the T/C reads like this: under setting [11], 94 % of control; under setting [12], 98 % of control; under setting [14], 100 % of control.
In the case of `O=C(Nc1ccc2ccccc2c1)c1ccc(Cl)cc1Cl`, the T/C was 95 % of control (dose: 75.0 mg/kg/injection, schedule: Q01DX001 (ip), vehicle: saline with Tween-80); 86 % of control (dose: 150.0 mg/kg/injection, schedule: Q01DX001 (ip), vehicle: saline with Tween-80); 90 % of control (dose: 300.0 mg/kg/injection, schedule: Q01DX001 (ip), vehicle: saline with Tween-80).
As for `COc1cc(O)c2c(c1)Cc1cc(C)cc(O)c1C2=O`, the T/C is 101 % of control (dose: 6.25 mg/kg/injection, schedule: Q01DX009 (ip), vehicle: saline with Tween-80) and 109 % of control under setting [9].
Turning to `Cc1c[se]c(=S)s1`, the T/C under setting [10] is 101 % of control, the T/C under setting [11] was 96 % of control and the T/C under setting [12] is 98 % of control.
For the compound `CC1=NNC(=O)/C1=C\c1ccc(N(C)C)cc1`, the T/C is 95 % of control under setting [10] and 93 % of control under setting [12].
For the compound `COc1cc(CC#N)ccc1C`, the T/C under setting [1] was 92 % of control.
Turning to `CCCCCCCCCCC(=O)OCC#CC#CCOC(=O)CCCCCCCCCC`, the T/C by setting is: under setting [4], 104 % of control; under setting [6], 104 % of control; under setting [8], 100 % of control.
As for `COc1ccc(C(O)(CS(C)=O)c2cccs2)cc1` (centres undefined), the T/C under setting [12] was 107 % of control and the T/C under setting [14] was 99 % of control.
With `COc1cc(Cl)c(CC(=O)c2c[nH]c3ccccc23)cc1OC`, the T/C under setting [11] was 103 % of control and the T/C under setting [14] is 99 % of control.
In the case of `O=C1CN(C2CCCCC2)CC(=O)N2C(c3ccccc3)CCCN12` (centres undefined), the T/C by setting is: (dose: 50.0 mg/kg/injection, schedule: Q01DX005 (ip), vehicle: saline with Tween-80) 97 % of control; (dose: 100.0 mg/kg/injection, schedule: Q01DX005 (ip), vehicle: saline with Tween-80) 103 % of control; (dose: 200.0 mg/kg/injection, schedule: Q01DX005 (ip), vehicle: saline with Tween-80) 118 % of control.
For the compound `C[C@@H]1C[C@H]2C(=CC1=O)CC[C@@H]1[C@@H]2CC[C@@]2(C)[C@H]1CC[C@]2(C)O`, the T/C runs as follows: under setting [2], 95 % of control; (dose: 50.0 mg/kg/injection, schedule: Q04DX003 (ip), vehicle: Klucel (hydroxypropylcellulose) (HPC)) 91 % of control; under setting [3], 87 % of control; under setting [4], 91 % of control and 103 % of control; under setting [5], 108 % of control; under setting [6], 96 % of control and 100 % of control.
With `NC(=O)C1(C(N)=O)CCC1`, the T/C reads like this: under setting [3], 100 % of control; under setting [4], 100 % of control; under setting [5], 110 % of control; under setting [6], 100 % of control; under setting [7], 100 % of control; under setting [8], 100 % of control.
